From US20240279684A1, “CYTOSOLIC DELIVERY OF GENOME EDITING TOOLS” (SAPREME TECHNOLOGIES B.V., priority 2021, published 2024)

What was measured:
[1] = system: cells with which the nanoplexes are contacted; assay: Toxicity of saponin towards cells during transfection; type: cell-based
Description: It is part of the invention that the method or the use of the invention is characterized in that the nanoparticle comprises the nanoparticle-forming compound, such as a peptide, such as poly-lysine, and the nucleic acid in a mass ratio in a range of 3:1 to 15:1, preferably in a range of 3:1 to 9:1. Typically, the nanoparticle-forming compound is a poly-lysine peptide such as K16 peptide. Preferred is the method wherein the nucleic acid is a plasmid DNA, at least encoding for a Cas, preferably Cas9 (SEQ ID NO: 1), and optionally also encoding for the gRNA, and wherein the nanoparticles comprise in addition to the plasmid DNA at least one poly-lysine peptide, preferably poly-lysine K16 peptide (poly-lysine peptide consisting of sixteen lysine residues). Alternatively, the poly-lysine peptide is a peptide consisting of 8-25 lysine residues, preferably 10-20, more preferably 12-18. High in vitro transfection efficiency is obtained with the method of the invention when nanoparticles encompassing plasmid DNA, K16 peptide are prepared and applied, and are contacted with cells in the presence of a saponin selected from GE1741 and SO1861, and preferably the saponin is GE1741. Typically, the saponin concentration during transfection of the plasmid DNA into selected target cells in vitro is 1 μg/mL-5 μg/mL, preferably 2-4 μg/mL. […] Cells are typically contacted with a composition comprising the nanoplexes and a separate composition comprising the saponin, preferably GE1741. Thus, typically, the nanoparticles comprise the poly-lysine peptide and the nucleic acid, for example at least a plasmid DNA encoding for a Cas, preferably Cas9 (SEQ ID NO: 1), or a Cas with at least 90% sequence identity with this Cas9, preferably 90-99.5% sequence identity, such as 92%, 93%, 94%, 95% or 95-99%.

Neuro-2A-cells [2] = assay: Slc knock-out / GFP-Puromycin donor knock-in co-transfection, GFP fluorescence; type: cell-based, murine; settings: for transfection efficiency: PDD (Cas9-gRNA(Slc26a4)-DNA, GFP-Puromycin-LDS)
Protocol: For further knock-out experiments, GE1741 and Neuro-2A cells were tested. The integration of a linear donor sequence (LDS) containing the gene for GFP into the genomic DNA was assessed using three kits from Origene (Herford, Germany): The Slcl9a3-KN2.0 (CAT #: KN515911), the Slc25a24-KN2.0 (CAT #: KN515970) and the Slc26a4-KN2.0 (CAT #: KN516006), which kits all three were mouse gene knock-out kits via CRISPR, non-homology mediated. The kits contained all-in-one plasmids, coding for Cas9 and the target specific sgRNAs. The Slc26a4 kit targeted the solute carrier family 26, member 4 in the chromosome 12. The indel efficiency by targeting the locus Slc26a4 could be already shown in Neuro-2A cells (Ryu et al., 2018), and for the linear-donor-kits (Slc19a3, Slc25a24) two different sgRNA-sequences were tested. […] Thus, for the knock-out of different solute carrier genes (Sic) in Neuro-2A-cells via CRISPR/Cas9, neuro-2A-cells were transfected with different kits in order to compare the efficiency of different targets (knocked-out gene) and different integration techniques (see FIG. 8 and FIG. 10).
FIG. 9A-D Transfection efficiency of saponin-mediated PDD (Cas9-gRNA (Slc26a4)-DNA, LDS-DNA)-transfections. A: Neuro-2A-cells were transfected with PDD-nanoplexes (Cas9-gRNA (Slc26a4)-DNA, GFP-Puromycin-LDS, 4:1 and 8:1 mass ratio when the mass of the peptide and the DNA are considered), with and without GE1741-Co-administration. The application of GE1741 led to a transfection efficiency of 20% and 30%, respectively, for the 4:1 and 8:1 mass ratio. Lipofectamin3000 served as positive control. B-D: Distinct fluorescence intensity increase of Neuro-2A-cells after saponin-mediated GFP-gene knock-in. n≥3; *: significant difference compared to the saponin-free transfection (only nuclease), U-test was performed. FIG. 9B: negative control; FIG. 9C: PDD(Cas9-gRNA(Slc26a4)-DNA, Puro-GFP-LDS), 4:1); FIG. 9D: PDD(Cas9-gRNA(Slc26a4)-DNA, Puro-GFP-LDS), 4:1)+GE1741.
FIG. 11A, B. Knockout of different solute carrier (Sic) in Neuro-2A-cells—homologous recombination vs. non-homologous recombination. Neuro-2A-cells were transfected using NHR kits and using HR kits in order to compare the efficiency for different targets and different integration techniques, under influence of the absence or presence of saponin GE1741 in the K16-peptide comprising nanoplexes. […] (A) co-transfection of plasmid DNA comprising nucleic acids encoding for Cas9 and gRNA(Slc26a4), and LDS DNA encoding for puromycin and green fluorescent protein (Puro-GFP-LDS). (B) co-transfection of plasmid DNA comprising nucleic acids encoding for Cas9 and gRNA(Slc), and donor template DNA encoding for puromycin and green fluorescent protein (Puro-GFP-DS) provided as DNA vector.
The co-transfection of Neuro-2A-cells with the plasmid DNA encoding for the Cas9 and the gRNA, and the LDS encoding for the GFP and the Puromycin, was done in a poly-lysine K16 peptide—nucleic acid ratio of 4:1 and 8:1, and plasmid DNA and LDS was complexed equally (500 ng/well). Transfections of cells were performed with and without GE1741 in the cell culture medium in which the cells were cultured. The transfection efficiency under influence of the absence or presence of the saponin was compared to transfection under influence of the presence of Lipofectamin3000 during transfection of the cells.
The integration of donor sequence into the genome can be performed via non-homologous recombination (‘NHR’) and homologous recombination (‘HR’). […]

Neuro-2A-cells [3] = assay: Confluence measurements during PD-transfections (Cytosmart live-cell imager); type: cell-based, murine; settings: Cas9-GFP- and GFP-DNA-transfections ± saponin, up to 95 h, vs untreated negative control
Protocol: FIG. 5A-F. Confluence measurements of Neuro-2A-cells during PD (Cas9-GFP)-transfections ±saponin-administration. A visual monitoring of confluence was conducted during the Cas9-GFP-transfections (FIGS. 5A, E, F) and GFP-DNA-transfections (FIGS. 5A, C, D) of Neuro-2A-cells. The display of confluence during the incubation time was provided by algorithms of the Cytosmart. […] Saponin GE1741 was absent (FIGS. 5A, C, E) or present (FIGS. 5A, D, F) during the confluency assessment over time. FIG. 5B-F show the Neuro-2A cell-confluency after an incubation time of 95 h.
In the course of the transfection process of Neuro-2A-cells (seeding, transfection, incubation), the cells were fully imaged and analyzed for confluence by a live-cell imager (Cytosmart Omni). Via cloud-based algorithms, which processed the visual images, the Cytosmart provided a valuable measure of viability in terms of confluence.

For `CC(=O)OC1C(C)OC(OC2C(C)OC(OC(=O)C34CCC(C)(C)CC3C3=CCC5C6(C)CCC(OC7OC(C(=O)O)C(O)C(OC8OCC(O)C(O)C8O)C7OC7OC(CO)C(O)C(O)C7O)C(C)(C=O)C6CCC5(C)C3(C)CC4O)C(OC3OC(C)C(OC4OCC(O)C(OC5OCC(O)C(O)C5O)C4O)C(O)C3O)C2O)C(O)C1OC(C)=O` (stereo not shown) [GE1741], the “highest non-toxic saponin Co-administration” value [1] was 2 µg/mL, the “GFP expression (in words)” value (Neuro-2A-cells [2]; HR-knock-in kits (Slc4a4, Slc11a2), circular donor) was “no GFP expression” and the “transfection efficiency vs saponin-free transfection (in words)” value (Neuro-2A-cells [2]; NHR-knock-in kits with LDS (Slc26a4, Slc19a3, Slc25a24), U-test) was “significant increase of transfection efficiency”. For the same molecule, the transfection efficiency (Neuro-2A-cells [2]; 4:1 mass ratio) was 20%, the transfection efficiency (Neuro-2A-cells [2]; 8:1 mass ratio) was 30% and the “transfected cells expressing fluorescence” value (Neuro-2A-cells [2]; co-transfection Cas9-gRNA plasmid + LDS, 500 ng/well each, ratio 4:1 and 8:1) was “over 30%”. The “toxic effects by confluence” value (Neuro-2A-cells [3]) was “No distinct toxic effects”.
